Our source for the IC50 values is US9745289B2, “Aldosterone synthase inhibitors” (Boehringer Ingelheim International GmbH, priority 2014, dated 2017).

The experiment has as its target cortisol synthase (CYP11B1) (Macaca fascicularis, UniProt A0A2K5ULY1). Description: Inhibition of Cortisol Synthesis. The experiment is classed as biochemical, cynomolgus monkey. As to conditions: cynomolgus adrenal gland mitochondria; 150 units of CYP11B1, 11-deoxycortisol as substrate, cortisol measured as product. The procedure:
The aldosterone synthase and cortisol synthase inhibition assays employ cynomolgus adrenal gland mitochondria as the source of aldosterone synthase (CYP11B2) and cortisol synthase (CYP11B1). […] Activity of CYP11B2 and CYP11B1 in these preparations is defined as the amount of enzyme that generates 1 pmol of product in one hour under the conditions described.
Assays are performed in 96-well format in a final volume of 60 μL/well, containing 100 mM potassium phosphate, pH 7.4, 1% (v/v) DMSO, and additionally, 2 μM of corticosterone and 50 units of CYP11B2 activity. Reactions are started by the addition of NADPH to 1 mM and allowed to proceed for 90 minutes at 37° C. Reactions are terminated by the addition of 60 μL of MeCN containing an internal standard for mass spectrometry. One hundred microliters are then transferred to a glass filter plate and centrifuged at 570×g for 5 minutes and the filtrate is collected. Reaction product aldosterone is quantified by mass spectrometry. To determine the assay blank value (0% activity), NADPH is omitted from some reactions.
Dose dependent inhibition is quantified by the inclusion of compound at various concentrations. Maximum activity (100%) is defined by reactions containing NADPH, but without compound.
Assays are performed as for aldosterone synthase except for the use of 150 units of CYP11B1, 11-deoxycortisol as substrate and cortisol measured as product.
Take `NC(=O)c1cccc2c1OCC(c1cncc(C3(O)CCOCC3)c1)O2` (single isomer, unassigned) [Cpd 1A, 2-[5-(4-Hydroxy-tetrahydro-pyran-4-yl)-pyridin-3-yl]-2,3-dihydro-benzo[1,4]dioxine-5-carboxylic acid amide]: the IC50 was > 100 µM.

As for `NC(=O)c1cccc2c1OCC(c1cncc(C3(O)CCOCC3)c1)O2` (single isomer, unassigned) [Cpd 1B, 2-[5-(4-Hydroxy-tetrahydro-pyran-4-yl)-pyridin-3-yl]-2,3-dihydro-benzo[1,4]dioxine-5-carboxylic acid amide], the 50% inhibitory concentration (IC50) was 24 µM. Regarding `N#CC1(c2cncc(C3COc4c(cccc4C(N)=O)O3)c2)CC1` (single isomer, unassigned) [Cpd 2A, 2-[5-(1-Cyano-cyclopropyl)-pyridin-3-yl]-2,3-dihydro-benzo[1,4]dioxine-5-carboxylic acid amide], the IC50 came out at 0.06 µM.

With `N#CC1(c2cncc(C3COc4c(cccc4C(N)=O)O3)c2)CC1` (single isomer, unassigned) [Cpd 2B, 2-[5-(1-Cyano-cyclopropyl)-pyridin-3-yl]-2,3-dihydro-benzo[1,4]dioxine-5-carboxylic acid amide], the IC50 is 0.23 µM. For `NC(=O)c1cccc2c1OCC(c1cncc(CN3CCCCS3(=O)=O)c1)O2` (single isomer, unassigned) [Cpd 3A, 2-[5-(1,1-Dioxo-1λ^6,-[1,2]thiazinan-2-ylmethyl)-pyridin-3-yl]-2,3-dihydro-benzo[1,4]dioxine-5-carboxylic acid amide], the IC50 was > 30 µM. Compound `NC(=O)c1cccc2c1OCC(c1cncc(CN3CCCCS3(=O)=O)c1)O2` (single isomer, unassigned) [Cpd 3B, 2-[5-(1,1-Dioxo-1λ^6,-[1,2]thiazinan-2-ylmethyl)-pyridin-3-yl]-2,3-dihydro-benzo[1,4]dioxine-5-carboxylic acid amide] came in with an IC50 of 5.6 µM. For the compound `NC(=O)c1cccc2c1OCC(c1cccnc1)O2` (single isomer, unassigned) [Cpd 4A, 2-Pyridin-3-yl-2,3-dihydro-benzo[1,4]dioxine-5-carboxylic acid amide], half-maximal inhibition (IC50) required 3.1 µM. The compound `NC(=O)c1cccc2c1OCC(c1cccnc1)O2` (single isomer, unassigned) [Cpd 4B, 2-Pyridin-3-yl-2,3-dihydro-benzo[1,4]dioxine-5-carboxylic acid amide] showed an IC50 of 2.5 µM. On to `NC(=O)c1cccc2c1OCC(c1cncc(CN3CCCC3=O)c1)O2` (single isomer, unassigned) [Cpd 5A, 2-[5-(2-Oxo-pyrrolidin-1-ylmethyl)-pyridin-3-yl]-2,3-dihydro-benzo[1,4]dioxine-5-carboxylic acid amide], for which the IC50 was > 30 µM. For the compound `NC(=O)c1cccc2c1OCC(c1cncc(CN3CCCC3=O)c1)O2` (single isomer, unassigned) [Cpd 5B, 2-[5-(2-Oxo-pyrrolidin-1-ylmethyl)-pyridin-3-yl]-2,3-dihydro-benzo[1,4]dioxine-5-carboxylic acid amide], it took 22 µM to reach half-maximal inhibition (IC50).

For `CN1C(=O)CCC1c1cncc(C2COc3c(cccc3C(N)=O)O2)c1` (single isomer, unassigned) [Cpd 6AA, 2-[5-(-1-Methyl-5-oxo-pyrrolidin-2-yl)-pyridin-3-yl]-2,3-dihydro-benzo[1,4]dioxine-5-carboxylic acid amide], the IC50 came out at 2.2 µM. For the compound `CN1C(=O)CCC1c1cncc(C2COc3c(cccc3C(N)=O)O2)c1` (single isomer, unassigned) [Cpd 6AB, 2-[5-(-1-Methyl-5-oxo-pyrrolidin-2-yl)-pyridin-3-yl]-2,3-dihydro-benzo[1,4]dioxine-5-carboxylic acid amide], the IC50 was found to be 10 µM. For the compound `CN1C(=O)CCC1c1cncc(C2COc3c(cccc3C(N)=O)O2)c1` (single isomer, unassigned) [Cpd 6BA, 2-[5-(-1-Methyl-5-oxo-pyrrolidin-2-yl)-pyridin-3-yl]-2,3-dihydro-benzo[1,4]dioxine-5-carboxylic acid amide], the half-maximal inhibitory concentration (IC50) is > 30 µM. Then `CN1C(=O)CCC1c1cncc(C2COc3c(cccc3C(N)=O)O2)c1` (single isomer, unassigned) [Cpd 6BB, 2-[5-(-1-Methyl-5-oxo-pyrrolidin-2-yl)-pyridin-3-yl]-2,3-dihydro-benzo[1,4]dioxine-5-carboxylic acid amide], with > 30 µM; and `CC(=O)N1CCC[C@@H](Oc2cncc(C3COc4c(cccc4C(N)=O)O3)c2)C1` (single isomer, unassigned) [Cpd 7A], with > 30 µM. Then `CC(=O)N1CCC[C@@H](Oc2cncc(C3COc4c(cccc4C(N)=O)O3)c2)C1` (single isomer, unassigned) [Cpd 7B], with 19 µM. As for `CS(=O)(=O)Cc1cncc(C2COc3c(cccc3C(N)=O)O2)c1` (single isomer, unassigned) [Cpd 8A, 2-(5-Methanesulfonylmethyl-pyridin-3-yl)-2,3-dihydro-benzo[1,4]dioxine-5-carboxylic acid amide], the IC50 is > 30 µM. The result for `CS(=O)(=O)Cc1cncc(C2COc3c(cccc3C(N)=O)O2)c1` (single isomer, unassigned) [Cpd 8B, 2-(5-Methanesulfonylmethyl-pyridin-3-yl)-2,3-dihydro-benzo[1,4]dioxine-5-carboxylic acid amide] reads 13 µM; that for `NC(=O)c1cccc2c1OCC(c1cncc(C(F)(F)F)c1)O2` (single isomer, unassigned) [Cpd 9A, 2-(5-Trifluoromethyl-pyridin-3-yl)-2,3-dihydro-benzo[1,4]dioxine-5-carboxylic acid amide], 5.2 µM; that for `NC(=O)c1cccc2c1OCC(c1cncc(C(F)(F)F)c1)O2` (single isomer, unassigned) [Cpd 9B, 2-(5-Trifluoromethyl-pyridin-3-yl)-2,3-dihydro-benzo[1,4]dioxine-5-carboxylic acid amide], 2.2 µM. Consider `NC(=O)c1cccc2c1OCC(c1cncc(C3CCOCC3)c1)O2` (single isomer, unassigned) [Cpd 10A, 2-[5-(Tetrahydro-pyran-4-yl)-pyridin-3-yl]-2,3-dihydro-benzo[1,4]dioxine-5-carboxylic acid amide], for which the 50% inhibitory concentration (IC50) was 3.4 µM.

`NC(=O)c1cccc2c1OCC(c1cncc(C3CCOCC3)c1)O2` (single isomer, unassigned) [Cpd 10B, 2-[5-(Tetrahydro-pyran-4-yl)-pyridin-3-yl]-2,3-dihydro-benzo[1,4]dioxine-5-carboxylic acid amide] showed an IC50 of 0.23 µM. On to `NC(=O)c1cccc2c1OCC(c1cncc(C3(O)CCCCC3)c1)O2` (single isomer, unassigned) [Cpd 11A, 2-[5-(1-Hydroxy-cyclohexyl)-pyridin-3-yl]-2,3-dihydro-benzo[1,4]dioxine-5-carboxylic acid amide], for which it took 24 µM to reach half-maximal inhibition (IC50). Regarding `NC(=O)c1cccc2c1OCC(c1cncc(C3(O)CCCCC3)c1)O2` (single isomer, unassigned) [Cpd 11B, 2-[5-(1-Hydroxy-cyclohexyl)-pyridin-3-yl]-2,3-dihydro-benzo[1,4]dioxine-5-carboxylic acid amide], half-maximal inhibition (IC50) required 4.4 µM.

On to `CC(=O)N1CCC(Oc2cncc(C3COc4c(cccc4C(N)=O)O3)c2)CC1` (single isomer, unassigned) [Cpd 12A, 2-[5-(1-Acetyl-piperidin-4-yloxy)-pyridin-3-yl]-2,3-dihydro-benzo[1,4]dioxine-5-carboxylic acid amide], for which the IC50 turned out to be 18 µM. In turn, `CC(=O)N1CCC(Oc2cncc(C3COc4c(cccc4C(N)=O)O3)c2)CC1` (single isomer, unassigned) [Cpd 12B, 2-[5-(1-Acetyl-piperidin-4-yloxy)-pyridin-3-yl]-2,3-dihydro-benzo[1,4]dioxine-5-carboxylic acid amide] returned an IC50 of 2 µM. In the case of `NC(=O)c1cccc2c1OCC(c1cncc(CC(=O)N3CCOCC3)c1)O2` (single isomer, unassigned) [Cpd 13A, 2-[5-(2-Morpholin-4-yl-2-oxo-ethyl)-pyridin-3-yl]-2,3-dihydro-benzo[1,4]dioxine-5-carboxylic acid amide], the IC50 is > 100 µM. Then `NC(=O)c1cccc2c1OCC(c1cncc(CC(=O)N3CCOCC3)c1)O2` (single isomer, unassigned) [Cpd 13B, 2-[5-(2-Morpholin-4-yl-2-oxo-ethyl)-pyridin-3-yl]-2,3-dihydro-benzo[1,4]dioxine-5-carboxylic acid amide], with 66 µM; and `NC(=O)c1cccc2c1OCC(c1cncc(CNC(=O)C3CC3)c1)O2` (single isomer, unassigned) [Cpd 14A, 2-{5-[(Cyclopropanecarbonyl-amino)-methyl]-pyridin-3-yl}-2,3-dihydro-benzo[1,4]dioxine-5-carboxylic acid amide.], with 12 µM. The result for `NC(=O)c1cccc2c1OCC(c1cncc(CNC(=O)C3CC3)c1)O2` (single isomer, unassigned) [Cpd 14B, 2-{5-[(Cyclopropanecarbonyl-amino)-methyl]-pyridin-3-yl}-2,3-dihydro-benzo[1,4]dioxine-5-carboxylic acid amide.] reads > 30 µM.

As a reminder, the IC50 is the point on the concentration scale where inhibition reaches its midpoint. Higher therefore signals lower potency.
